Experimental data reported in PMC10012172, “Chimeric Peptidomimetic Antibiotic Efficiently Neutralizes Lipopolysaccharides (LPS) and Bacteria-Induced Activation of RAW Macrophages” (ACS Infectious Diseases, 2023).
Values after ≈ are worked out from the molar mass of the structure shown. Where a SMILES comes first, the peptide text is derived from it. Bridges are numbered along the chain shown (N, C = ends). Roman numbers before positions name the chains, in order. [ ]: non-standard residue; d: D form. Tle = CC(C)(C)[C@H](N)C(=O)O; dDab = NCC[C@@H](N)C(=O)O; hSer = N[C@@H](CCO)C(=O)O; Orn = NCCC[C@H](N)C(=O)O; Dab = NCC[C@H](N)C(=O)O

Tests used:
[1] = tested on: E. coli O111:B4 LPS stimulated RAW264.7 macrophages; assay: TNF-α release ELISA in LPS stimulated macrophages; format: cell-based; settings: 20 ng/mL E. coli O111:B4 LPS, 24 h; for concentration inhibiting TNF-α release: unable to inhibit up to highest concentration
Protocol: (§1) Figure 4 Peptides modulation of cytokine expression in RAW264.7 cells stimulated with LPS. RAW macrophages were stimulated with 20 ng/mL E. coli LPS in the presence of different concentrations of peptide antibiotics. (A) TNF-α and (B) IL-10 release was measured by ELISA in duplicates. Shown are the mean ± SEM of three independent experiments.
(§2) RAW264.7 cells were seeded (5 × 10^4 cells/well) in a 96-well plate and left at 37 °C for overnight adherence. Then, cells were stimulated with […] types of LPS: 20 ng/mL LPS originating from E. coli O111:B4 (LPS-EB, InvivoGen), 50 ng/mL LPS from P. aeruginosa (PA-10 LPS, Sigma -Aldrich), and 5 ng/mL LPS from E. coli K-12 (LPS-EK, InvivoGen) in the presence of 0–5 μM peptides in DMEM for 24 h. After incubation, the nitrite content (corresponding to nitric oxide produced but quickly oxidized in watery solutions to nitrite) in the supernatant was measured using the Griess assay.[28]
(§3) A sandwich ELISA was used to measure TNF-α and IL-10 concentrations in the supernatant of the same treatment (24 h) used for nitrite measurement, using ELISA Duoset kits (R&D systems, Minneapolis, MN) according to the manufacturer’s protocol.

[2] = tested on: Pseudomonas aeruginosa (clinical isolate); format: cell-based; settings: 3 h
Protocol: (§4) Figure 2 Determination of MBC values for (A) E. coli and (B) P. aeruginosa. Surviving bacterial colonies were detected after incubation with tested peptides for 3 h in MHB.
(§5) Bacterial strains used in this study were clinical isolates of Escherichia coli and Pseudomonas aeruginosa provided by Utrecht University Medical Center, Department of Medical Microbiology, Utrecht, The Netherlands. Both strains were cultured in Mueller Hinton broth (MHB) (Millipore, Sigma-Aldrich).
(§6) Logarithmic growth phase of an o/n bacterial culture was obtained by diluting it 1:100 in MHB and then incubating it for 3 h at 37 °C while shaking. After that, the OD620 of the bacterial suspension was measured and the bacterial solution was diluted to 2 × 10^6 colony forming units/mL (CFU/mL). Bacteria and peptides in MHB were mixed 1:1 (v/v) and incubated for 3 h at 37 °C in a polypropylene round-bottom 96 well-plate (Corning Costar, Glendale, AZ). Subsequently, 10-fold dilutions were made and plated out on Tryptone Soy Agar (TSA) plates and incubated for 24 h at 37 °C to count colonies.

[3] = tested on: Escherichia coli (clinical isolate); format: cell-based; settings: for MBC (complete killing) against E. coli: clinical isolate, 3 h
Protocol: as §4, §5, §6

[4] = tested on: E. coli O111:B4 LPS stimulated RAW264.7 macrophages; assay: IL-10 release ELISA in LPS stimulated macrophages; format: cell-based; settings: 20 ng/mL E. coli O111:B4 LPS, 24 h; for concentration inhibiting IL-10 release: unable to inhibit up to highest concentration
Protocol: as §1, §2, §3

[5] = tested on: RAW264.7 macrophages stimulated with treated P. aeruginosa; assay: Silent killing: stimulation of macrophages with nonviable bacteria (TNF-α ELISA); format: cell-based; settings: bacteria 1 × 10^6 CFU/mL treated with 20 μM peptide 1 h at 37 °C, RAW264.7 2 h, three independent experiments
Protocol: Figure 7 (A) Determination of macrophage activation in response to viable and nonviable bacteria. P. aeruginosa was treated with gentamicin, heat treatment, CATH-2 (control), CPA, murepavadin, MHM, PMB, or PMBN (20 μM of each) and subsequently added to RAW264.7 macrophages. Production of TNF-α was measured using ELISA after 2 h of treatment. (B) Viability of P. aeruginosa after treatment was checked by plating on TSA plates. Data is plotted as the mean ± SEM of three independent experiments. Significant differences were determined by ordinary one-way ANOVA (Tukey’s multiple comparison test).
RAW264.7 cells were seeded (7.5 × 10^4 cells/well) as described above. P. aeruginosa (diluted to 1 × 10^6 CFU/mL in DMEM) was treated separately with heat (1 h at 90 °C), 1 mg/mL gentamicin (1 h at 37 °C), 20 μM CPA (1 h at 37 °C), 20 μM PMB (1 h at 37 °C), 20 μM murepavadin (1 h at 37 °C), 20 μM MHM (1 h at 37 °C), 20 μM CATH-2 (1 h at 37 °C), and DMEM only (untreated sample) (1 h at 4 °C). After treatment, the bacteria were added to the RAW264.7 cells for 2 h of incubation at 37 °C. After that, TNF-α production was determined in the supernatant by ELISA.

[6] = tested on: E. coli O111:B4 LPS; assay: Isothermal titration calorimetry (ITC) of LPS binding; settings: 30 μM peptide, 200 μM LPS in 50% PBS, 37 °C, representative of two measurements
Protocol: Figure 6 (A) Binding profile of LPS and the peptides using ITC. Binding signatures (ΔG, ΔH. and −TΔS) plotted for binding events of LPS with peptides. (B) Spectra of the interaction between LPS and peptides. Murepavadin, PMB, MHM, PMBN, and CPA (30 μM) were titrated against 200 μM E. coli O111:B4 LPS, and heat rates were recorded. Shown is a representative of two measurements.
ITC measurements were performed in a low volume NanoITC (TA Instruments-Waters LLC, New Castle, DE). Two hundred micromolar LPS (from E. coli O111:B4) was prepared in 50% PBS. Peptides of 30 μM concentration were prepared in identical buffer. Three hundred microliters of the peptide solution was added to the chamber (chamber volume is 169 μL, so the rest of the volume flows out and rests around the chamber), and 50 μL of LPS was added to the syringe. At 37 °C, 2 μL of LPS solution was injected into the chamber every 300 s, except the first injection, which consists of 0.96 μL. The experiments were performed at 37 °C while stirring at 300 rpm. The data was analyzed with the NanoAnalyze Software (TA Instruments, Asse, Belgium).

[7] = tested on: E. coli O111:B4 LPS stimulated RAW264.7 macrophages; assay: Nitric oxide inhibition assay (Griess), E. coli O111:B4 LPS; format: cell-based; settings: 0–5 μM peptide; for inhibition of LPS-induced nitric oxide production (in words): smooth E. coli O111:B4 LPS 20 ng/mL, 24 h
Protocol: (§7) Figure 3 Nitric oxide inhibition in LPS stimulated RAW264.7 by peptide antibiotics. RAW264.7 cells were stimulated with smooth type LPSs (A) E. coli O111:B4 LPS and (B) P. aeruginosa LPS and rough type LPS (C) E. coli K-12 LPS in the presence of different concentrations of peptides: CPA, murepavadin, MHM, PMB, and PMBN. NO production was measured by Griess assay. Shown are the mean ± SEM of three independent experiments. (D) Schematic diagram of the general structure of lipopolysaccharides. It consists of three main subunits: lipid A, the core region, and the O-antigen. Lipid A and the core-region form rough (R)-type LPS. Lipid A, the core-region, and the O-antigen together form smooth (S)-type LPS.
as §2

[8] = tested on: P. aeruginosa 10 LPS stimulated RAW264.7 macrophages; assay: Nitric oxide inhibition assay (Griess), P. aeruginosa 10 LPS; format: cell-based; settings: 0–5 μM peptide; for inhibition of LPS-induced nitric oxide production (in words): smooth P. aeruginosa 10 LPS 50 ng/mL, 24 h
Protocol: as §7, §2

[9] = tested on: E. coli K-12 LPS stimulated RAW264.7 macrophages; assay: Nitric oxide inhibition assay (Griess), E. coli K-12 LPS; format: cell-based; settings: 0–5 μM peptide; for inhibition of LPS-induced nitric oxide production (in words): rough E. coli K-12 LPS 5 ng/mL, 24 h
Protocol: as §7, §2

Row | Compound | concentration inhibiting TNF-α release [1] | MBC (complete killing) against P. aeruginosa [2] | MBC (complete killing) against E. coli [3] | concentration inhibiting IL-10 release [4] | macrophage activation (TNF-α) by peptide-treated P. aeruginosa compared to viable untreated bacteria [5] | Kd [6] | inhibition of LPS-induced nitric oxide production (in words) [7] | inhibition of TNF-α release (in words) [1] | inhibition of LPS-induced nitric oxide production (in words) [8] | inhibition of LPS-induced nitric oxide production (in words) [9] | inhibition of IL-10 release (in words) [4] | concentration that completely neutralized E. coli O111:B4 LPS (nitric oxide production) ([7]; 20 ng/mL LPS, 24 h in DMEM, Griess assay) | concentration that almost completely neutralized P. aeruginosa 10 LPS (nitric oxide production) ([8]; 50 ng/mL LPS, 24 h in DMEM, Griess assay) | decrease in viable E. coli ([3]; at 1.25 μM peptide, from starting density of 10^6 CFU/mL, 3 h in MHB) | concentration that neutralized E. coli K-12 LPS (nitric oxide production) ([9]; 5 ng/mL rough LPS, 24 h in DMEM, Griess assay)
1 | CC[C@H](C)[C@@H]1NC(=O)[C@H](Cc2c[nH]c3ccccc23)NC(=O)[C@H]([C@@H](C)O)NC(=O)[C@@H]2CCCN2C(=O)[C@H]2CCCN2C(=O)[C@H](CO)NC(=O)[C@H](C)NC(=O)[C@H](CCN)NC(=O)[C@H](CCN)NC(=O)[C@H](Cc2c[nH]c3ccccc23)NC(=O)[C@H](CCN)NC(=O)[C@@H](CCN)NC(=O)[C@H](CCCN)NC(=O)[C@H](CCN)NC1=O [murepavadin] (cyclo(TWI[Dab][Orn][dDab][Dab]W[Dab][Dab]AS[dP]P)) | > 5 µM | 5 to 10 µM | > 20 µM | > 5 µM | no significant reduction in macrophage activation | 2020 nM | – | – | – | – | – | – | – | – | –
2 | polymyxin B [PMB] | – | – | – | – | – | 2500 nM | dose-dependently active | slightly less activity compared to CPA | dose-dependently active | dose-dependently active | slightly less activity compared to CPA | – | – | – | –
3 | CC(C)[C@@H]1NC(=O)[C@@H]2CCCN2C(=O)[C@@H](C)NC(=O)[C@H](CO)NC(=O)[C@H](C)NC(=O)[C@H](C(C)(C)C)NC(=O)[C@H](CCO)NC(=O)[C@H](Cc2c[nH]c3ccccc23)NC(=O)[C@H](CCO)NC(=O)[C@@H](CCN)NC(=O)[C@H](CCC(=O)O)NC(=O)[C@H](CCN)NC(=O)[C@H](Cc2ccc(O)cc2)NC(=O)[C@H]([C@@H](C)O)NC1=O [MHM] (cyclo(VTY[Dab]E[dDab][hSer]W[hSer][Tle]AS[dA]P)) | > 5 µM | > 20 µM | > 20 µM | > 5 µM | no significant reduction in macrophage activation | 970 nM | – | – | – | – | – | – | – | – | –
4 | CC(C)C[C@@H]1NC(=O)[C@@H](Cc2ccccc2)NC(=O)[C@H](CCN)NC(=O)[C@@H](NC(=O)[C@H](CCN)NC(=O)[C@@H](NC(=O)[C@H](CCN)NC(=O)CC[C@@H]2NC(=O)[C@H](CCN)NC(=O)[C@H](Cc3ccc(O)cc3)NC(=O)[C@H]([C@@H](C)O)NC(=O)[C@H](C(C)C)NC(=O)[C@@H]3CCCN3C(=O)[C@@H](C)NC(=O)[C@H](CO)NC(=O)[C@H](C)NC(=O)[C@H](C(C)(C)C)NC(=O)[C@H](CCO)NC(=O)[C@H](Cc3c[nH]c4ccccc34)NC(=O)[C@H](CCO)NC(=O)[C@@H](CCN)NC2=O)[C@@H](C)O)CCNC(=O)[C@H]([C@@H](C)O)NC(=O)[C@H](CCN)NC(=O)[C@H](CCN)NC1=O [CPA] (I: cyclo([dDab][hSer]W[hSer][Tle]AS[dA]PVTY[Dab]E) / II: [Dab]T[Dab][Dab][Dab][dF]L[Dab][Dab]T; amide I:14-II:N (inferred); lactam II:4-II:C (inferred); ring closure inferred) | – | 2.5 µM (≈ 6.41 µg/mL) | 10 µM (≈ 25.7 µg/mL) | – | significantly reduced immune response | 7800 nM | dose-dependently active | sharply decreased the TNF-α and IL-10 release by RAW264.7 macrophages at a concentration of 5 nM | dose-dependently active | dose-dependently active | sharply decreased the TNF-α and IL-10 release by RAW264.7 macrophages at a concentration of 5 nM | 20 nM | 20 nM | 2 log | 5 µM
5 | CC(C)C[C@@H]1NC(=O)[C@@H](Cc2ccccc2)NC(=O)[C@H](CCN)NC(=O)[C@@H](NC(=O)[C@H](CCN)NC(=O)[C@@H](N)[C@@H](C)O)CCNC(=O)[C@H]([C@@H](C)O)NC(=O)[C@H](CCN)NC(=O)[C@H](CCN)NC1=O [PMBN, polymyxin B nonapeptide] (H-T[Dab][Dab][Dab][dF]L[Dab][Dab]T; lactam 3-C (inferred); N-terminus assumed) | – | > 20 µM | > 20 µM | – | – | 3800 nM | partially inhibited nitric oxide production only at 5 μM | – | partially inhibited nitric oxide production only at 5 μM | – | inhibit IL-10 release dose-dependently but at concentrations much higher than those required for CPA or PMB | – | – | – | –
